Melting point data for 87 compounds are collected here from a melting point compilation (Tetko et al.; mined from patent text by program, amines drawn as free bases though some values may be those of a salt).

Some results are limits rather than exact numbers.

Usually melting point stands for the temperature, or range, at which the solid turns liquid. Consider `CC(C)(CC(O)(Cn1ccc2c1CCCC2=O)C(F)(F)F)c1cc(-c2cncnc2)cc2c1OCC2` (configuration not stated), for which the melting point was in the range of 213 to 214 °C.

`O=C(O)[C@H]1C[C@H](F)CN1` returned a melting point of 258 to 260 °C. For `CCN(CC)CCNC(=O)c1nc(Cl)c(OC)nc1OC` the value was 88 °C; for `O=CNNC(C(=O)O)c1ccccc1` (configuration not stated), 137 °C; for `CC(=O)n1c(C)cc(=O)n(-c2cc(C(=O)OC(C)C)c(Cl)cc2F)c1=O`, 168 to 170 °C.

In the case of `CC(C)COc1ccc2c(c1)c(=O)n(CCC(=O)O)c(=O)n2Cc1c[nH]c2ccccc12`, the melting point lay in the range of 199 to 201 °C.

Turning to `CSCn1c(Br)c(Br)c(C#N)c1-c1ccc(C(F)(F)F)cc1`, the melting point was 140 to 145 °C. The value for `COC(=O)[C@@H]1C(=O)N(C)c2ccccc2C[C@H]1c1ccc2c(c1)OCO2` (racemic) was 125 to 127 °C.

`CNC(=O)C1(c2ccc([N+](=O)[O-])cc2)C2C=CC(C2)C1C(N)=O` (configuration not stated) returned a melting point of 164 to 166 °C.

With `CC(=O)C1=C(O)C(=C(C)Nc2ccccc2N)C(=O)OC1=O`, the melting point lay in the range of 179 to 181 °C. For `Cc1cc(C)c(N[C@@H](C)C(=O)O)c(C)c1`, the melting point was in the range of 318 to 320 °C.

On to `C[C@]1(COc2ccc3nc(N4CCN(Cc5ccc(OC(F)(F)F)cc5)CC4)sc3c2)Cn2cc([N+](=O)[O-])nc2O1`, for which the melting point lay in the range of 206 to 207 °C. For `CNS(=O)(=O)c1ccc(CCN2CC=C(c3c[nH]c(-c4ccc(F)cc4)c3-c3ccncc3)CC2)cc1OC` the value was 245 to 247 °C. The value for `CCCOc1ccc(C2=NN(C(=O)Nc3ccc(C(F)(F)F)cc3)CC2(C)C(=O)OC)cc1` (configuration not stated) was 134 to 137 °C; that for `COc1cc2c(cc1S(=O)(=O)c1ccc(OCc3ccc(Cl)cc3)cc1)CCN(C)CC2` was 120 to 122 °C. For `COc1ccc(C(=O)Nc2cc(NC(=O)c3cccc(N4CCOCC4)c3)ccc2Cl)cc1OC` the value was 148 °C. `Cc1cnc(-c2cc(C(F)(F)F)nn2C)nc1Oc1cc(C(F)(F)F)nn1C` showed a melting point of 113 °C. Regarding `Cc1ccc(S(=O)(=O)NC(=O)OCCc2ccc(-n3c(C(C)C)nc4c(C)nc(C)cc43)cc2)cc1`, the melting point amounted to 213 °C. In the case of `COc1ccc2c(c1)-c1cc(OC)ccc1C2=O`, the melting point lay in the range of 123 to 125 °C.

In the case of `Nc1sc2c(c1C(=O)c1cccs1)CCC(Cc1ccccc1)C2` (configuration not stated), the melting point is 116 to 118 °C. For `O=C(Cc1c(-c2ccccc2)c2cc(CSc3ccccn3)c(Cl)cc2oc1=O)Nc1ccc(F)cc1C(F)(F)F` the value was 195 to 196 °C; for `CCN1CCCC1CNC(=O)c1ccc(Cl)nc1Cl` (configuration not stated), 73 to 74 °C; for `CCCN(CCC)C1=NC2C(Br)=NN(C)C2C(O)=N1` (configuration not stated), 186 to 187 °C.

Compound `CC1(C)C=C(C(=O)NC2COC(C)(C)OCC2O)C(C)(C)N1` (configuration not stated) had a melting point of 125 to 127 °C. The compound `CCCCc1nc2c(N)nc3ccccc3c2n1CCCCO` gave a melting point of 184 to 186 °C.

`CCn1nc2c(N)nc3ncccc3c2c1CC(C)C`: the melting point is 273 to 276 °C. The value for `CC1=CC(O)C(OC(=O)c2ccccc2Cl)C(C)(C)CC1=O` (configuration not stated) was 92.5 to 94 °C.

`CNCc1cc(=O)oc2cc(OC)ccc12` had a melting point of 109 to 110 °C.

In the case of `CCCCCCn1c2ccccc2c2ccc(CO)cc21`, the melting point lay within 54 to 55 °C. For `COc1ccc(C(=NOCC(=O)O)c2ccc(OC)cc2)cc1` the value was 105 to 107 °C; for `Cc1nc(-c2cn(Cc3ccc(F)cc3)nn2)sc1C(=O)NCc1ccccc1`, 114 to 115 °C; for `O=C(NCCO)c1nc2ccccc2[nH]1`, 194 to 195 °C. The value for `Cn1nc(C#N)c(Nc2ccc(C(F)(F)F)cc2[N+](=O)[O-])n1` was 116 to 117 °C; that for `C=CCN(CC=C)c1nc(NC(=O)c2c(Cl)cccc2Cl)n2oc(=O)nc2n1` was 133 to 135 °C; that for `Clc1ccc2c3c([nH]c2c1)C1=CCCCN1CC3` was 165 °C. The value for `CC(=O)N1CCc2cc(C(=O)CCCCCl)ccc21` was 90 to 91 °C; that for `CCN(CC)CCNCc1ccc(C(=O)Nc2nc(-c3ccccc3)c(-c3ccc(=O)n(C(C)C)n3)s2)cc1` was 158 to 160 °C.

For the compound `O=S(=O)(O)c1ccc2c(c1)CNC(C(Cl)(Cl)Cl)O2` (configuration not stated), the melting point was above 260 °C. Compound `Cc1ccc(C[C@@H]2CN(CCCN3C(=O)c4ccccc4C3=O)CCN2C(=O)c2cc(C(F)(F)F)cc(C(F)(F)F)c2)cc1C` showed a melting point of 146 to 147 °C. In turn, `COC(=O)c1ccc(C(=O)N[C@@H]2CCCC[C@@H]2c2ccc(OC)c(OC)c2)cc1` showed a melting point of 154 to 156 °C. For `CCN1CC(CCCl)N(C)c2ccccc2C1=O` (configuration not stated) the value was 75 to 79 °C; for `Cn1c2ccc(OCc3ccccc3)cc2c2c(CC(=O)N3CCCC3)nn(-c3ccccc3)c(=O)c21`, 203 to 204 °C; for `Nc1ccn2nc(-c3ccccc3)nc2c1`, 212 to 213 °C.

In turn, `OCc1cccc(-n2cccc2)c1` had a melting point of 64 to 67 °C. Consider `C=C(C)C(=O)Nc1ccc(-n2nc(C(F)(F)F)cc2C(F)(F)F)cc1`, for which the melting point fell in the range of 160 to 162 °C. `O=C(Nc1ccccc1)C(CS)Cc1ccccc1` (configuration not stated) came in with a melting point of 70 °C. For `CN1C(=O)c2cccnc2Nc2cc(C(F)(F)F)ccc21` the value was 169 to 172 °C; for `CCN(CC)C(=O)Nc1ccc(Oc2ccc3sncc3c2)c(Cl)c1`, 141 °C. For `N#Cc1ccc(-c2cccc(C=O)c2O)cc1` the value was 120 to 121 °C; for `CC(C)Oc1ccc2nc3ccc(C#N)cn3c(=O)c2c1`, 234 to 236 °C.

`CC#CC(C)(C)N(C)C(=O)C(CC)Oc1cncc(Cl)c1` (configuration not stated) returned a melting point of 67 to 68 °C. For `COc1ccc(CCNc2c(-c3ccc(S(C)(=O)=O)cc3)cnn(CC(F)(F)F)c2=O)cc1OC` the value was 163 to 165 °C; for `O=c1[nH]sc2c1c(=O)c1cc(F)c(N3CCNCC3)cc1n2C1CC1`, above 275 °C. The value for `Cc1nc(SCc2cnccc2C(=O)O)sc1CC(=O)O` was 207 to 211 °C; that for `COCOc1nn(-c2ccccc2)cc1C=O` was 106 to 107 °C; that for `COc1ccc(CCNS(=O)(=O)Cc2ccc3[nH]cc(CCN)c3c2)cc1` was 128 to 129 °C. For `COCCNC(=O)c1nc(NC(C)=O)c2cc(Cc3ccc(F)cc3)cnc2c1OCc1ccccc1` the value was 147 to 149 °C; for `COCCOc1cc2cc(C(=O)OC)c(C(=O)OC)c(-c3ccncc3)c2cc1OC`, 156 to 158 °C; for `CC(=O)OC1CSC(Oc2ccc(-c3cccnc3)cc2F)C(OC(C)=O)C1OC(C)=O` (configuration not stated), 122 °C. For `Cc1c(C=CCCCCCCCCCC(=O)O)cccc1C(=O)c1ccc(Cl)cc1`, the melting point came to 49 °C. For `COCc1cc2cc(CN3CCOCC3)cc3c(=O)c(C(=O)NCc4ccc(Cl)cc4)cn1c23` the value was 157 to 159 °C; for `CS(=O)(=O)c1ccc(C(=O)c2cnoc2C2CC2)c(Cl)c1-c1nccs1`, 153 to 155 °C; for `COC(=O)N(C)CCCC(=O)OC[C@@H]1CC(c2ccc(-c3ccc(N4C[C@H](Cn5ccnn5)OC4=O)cc3F)cn2)=NO1`, 135 °C.

Regarding `CCCCCCCNC(=O)Nc1ccc(OC)cc1C(=O)NCC1CCN(C(c2ccccc2)c2ccccc2)CC1`, the melting point is 189 to 191 °C.

Regarding `CCCCCCNC(=O)c1cnc(OCC(O)CNC(C)C)nc1` (configuration not stated), the melting point lay within 114 to 115 °C. `CC1COCc2nc3c(N)nc4ccc(OCC(=O)N5CCOCC5)cc4c3n21` (configuration not stated): the melting point lay within 226 to 228 °C. The value for `Cc1c(N)c(C)c(Cc2ccc(C(C)C)cc2)c2c1CCO2` was 114 to 115 °C. For `CCCCCC(=O)N(C)Cc1cc(-c2ccc(C[C@H](OCC)C(=O)O)cc2)cs1` the value was 65 °C; for `CNC(=O)ON=C(C)CSC(F)(F)F`, 56 to 58 °C. The value for `COc1cc(-c2nc3ccccc3n2Cc2ccc(C)cc2)cc(OC)c1OC` was 84.5 °C. In the case of `O=[N+]([O-])c1ccc2[nH]cc(CCCBr)c2c1`, the melting point fell in the range of 92 to 95 °C.

With `O=C1Nc2cc(F)ccc2C1CCCCN1CCN(c2ccccn2)CC1` (configuration not stated), the melting point was in the range of 136 to 137 °C. For `O=C(Cc1ccc(Cl)cc1)OC(c1ccccc1)c1ccccc1` the value was 107 to 108 °C; for `N#CCCOCc1cc(Cl)nc(Cl)c1`, 65.5 °C; for `CC(C)c1cccc(C(C)C)c1NC(=O)CNC(C)c1ccccn1` (configuration not stated), 99 to 101 °C.

`COc1cc(-n2nc(C)[nH]c2=O)ccc1C` showed a melting point of 164 to 168 °C. The value for `O=C(c1ccc(I)cc1)c1ccc2c(c1)c(-c1cccc(Cl)c1)nc1nnnn12` was 175 °C. With `CS(=O)(=O)c1ccc(-c2cc(CO)nn2Cc2ccccc2)cc1`, the melting point is 155 °C.

As for `CC(C)(C)c1cc(Cl)ccc1N1CCN(C(=O)C(=O)O)CC1`, the melting point lay in the range of 154 to 155 °C. The value for `CCc1cc(N(C)Cc2ccc3oc(-c4ccccc4C#N)cc3c2)n2nccc2n1` was 143 °C.

As to `CCOC(=O)C1=C(C(=O)OCC)c2c(OC)ccc(Br)c2C1`, the melting point was 99 to 101 °C. The value for `C=Cc1ccc(CN2CCN(Cc3ccc(C=C)cc3)CCN(Cc3ccc(C=C)cc3)CC2)cc1` was 71 to 73 °C; that for `O=C(Nc1ccc(C(CC2CCCC2)C(=O)Nc2nccs2)cc1)c1ccc([N+](=O)[O-])cc1` (configuration not stated) was 236 to 238 °C; that for `Cn1c(Oc2cccc(C(F)(F)F)c2)nc2c(-c3cccc(C(=O)NCCO)c3)cccc21` was 139 to 140 °C. With `CC(C)C1(CCc2ccccc2CO)CC(O)=C(Sc2sc3ccccc3c2C(C)(C)C)C(=O)O1` (configuration not stated), the melting point lay in the range of 92 to 94 °C. In turn, `CCOC(=O)C(=O)Nc1nnc2c3c(c(N4CCCCC4)nn12)CCCC3` displayed a melting point of 168 to 169 °C. For `CC(C)[Si](C#Cc1ccc2cc3c(cc2c1)Cc1cc2cc(C#C[Si](C(C)C)(C(C)C)C(C)C)ccc2cc1C3)(C(C)C)C(C)C` the value was 73 to 75 °C.
